# Measured values as given in the Kinase Knowledgebase extract (Sharma et al. 2016).
# Molecular target: ROCK2 (human) (UniProt O75116)
# Test: Assessment of ROCK2 Kinase Activity
# Sequence of ROCK2 (human) (O75116 whole entry, looked up): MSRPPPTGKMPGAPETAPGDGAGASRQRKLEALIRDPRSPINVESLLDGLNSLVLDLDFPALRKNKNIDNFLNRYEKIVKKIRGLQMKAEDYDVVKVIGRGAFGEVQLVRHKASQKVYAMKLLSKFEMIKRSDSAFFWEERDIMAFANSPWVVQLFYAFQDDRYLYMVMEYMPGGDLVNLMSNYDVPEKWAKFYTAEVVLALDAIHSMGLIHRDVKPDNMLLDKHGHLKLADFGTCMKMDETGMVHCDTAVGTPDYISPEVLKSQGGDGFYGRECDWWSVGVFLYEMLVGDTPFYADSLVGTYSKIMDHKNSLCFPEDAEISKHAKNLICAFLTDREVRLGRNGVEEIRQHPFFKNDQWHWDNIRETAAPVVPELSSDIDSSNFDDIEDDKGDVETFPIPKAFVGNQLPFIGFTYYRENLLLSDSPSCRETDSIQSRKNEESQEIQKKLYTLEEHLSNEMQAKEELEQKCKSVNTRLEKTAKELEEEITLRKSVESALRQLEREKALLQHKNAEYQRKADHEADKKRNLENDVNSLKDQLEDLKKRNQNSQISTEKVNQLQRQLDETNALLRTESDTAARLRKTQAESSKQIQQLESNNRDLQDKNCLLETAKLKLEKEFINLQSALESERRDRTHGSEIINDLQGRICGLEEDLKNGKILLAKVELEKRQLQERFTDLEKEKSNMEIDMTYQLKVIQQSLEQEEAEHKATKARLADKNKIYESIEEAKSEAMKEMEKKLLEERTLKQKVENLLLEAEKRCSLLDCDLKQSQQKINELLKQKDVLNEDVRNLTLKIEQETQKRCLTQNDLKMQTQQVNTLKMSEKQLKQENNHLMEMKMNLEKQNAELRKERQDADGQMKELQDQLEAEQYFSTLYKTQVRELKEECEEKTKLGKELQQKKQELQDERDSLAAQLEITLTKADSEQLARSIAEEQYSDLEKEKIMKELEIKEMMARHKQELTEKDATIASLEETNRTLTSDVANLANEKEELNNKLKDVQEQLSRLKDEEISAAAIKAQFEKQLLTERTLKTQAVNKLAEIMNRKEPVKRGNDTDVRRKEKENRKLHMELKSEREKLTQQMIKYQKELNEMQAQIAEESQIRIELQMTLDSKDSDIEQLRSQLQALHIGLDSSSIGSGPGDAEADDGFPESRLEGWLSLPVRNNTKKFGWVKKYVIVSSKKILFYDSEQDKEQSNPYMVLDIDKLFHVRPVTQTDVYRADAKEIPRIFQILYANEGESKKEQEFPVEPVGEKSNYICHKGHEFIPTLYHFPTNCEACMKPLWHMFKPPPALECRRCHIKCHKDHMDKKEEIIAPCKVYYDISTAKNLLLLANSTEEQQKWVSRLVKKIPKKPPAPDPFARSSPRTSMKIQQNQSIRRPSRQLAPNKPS
row,Structure (SMILES),IC50 [µM]
1,NCC1(c2ccc(F)cc2)CCC(Oc2cc3cc[nH]c(=O)c3cc2Cl)CC1 (stereo unspecified),≤ 1
2,NC1(CC(O)CO)CCC(Oc2cc3cc[nH]c(=O)c3cc2Cl)CC1 (stereo unspecified),≤ 1
3,COc1ccc(C2(CN)CCC(Oc3cc4cc[nH]c(=O)c4cc3Cl)CC2)cc1 (stereo unspecified),≤ 1
4,NCC1(c2ccc(Cl)cc2)CCC(Oc2cc3cc[nH]c(=O)c3cc2Cl)CC1 (stereo unspecified),≤ 1
5,NCC1(c2ccccc2)CCC(Oc2cc3cc[nH]c(=O)c3cc2Cl)CC1 (stereo unspecified),≤ 1
6,NCC1(c2cccc(Cl)c2)CCC(Oc2cc3cc[nH]c(=O)c3cc2Cl)CC1 (stereo unspecified),≤ 1
7,NCC1(c2ccccc2)CCC(Oc2cc3ccncc3cc2Cl)CC1 (stereo unspecified),≤ 1
8,C=CCC1(N)CCC(Oc2cc3cc[nH]c(=O)c3cc2Cl)CC1 (stereo unspecified),≤ 1
9,NCC1(c2ccc(Cl)c(Cl)c2)CCC(Oc2cc3cc[nH]c(=O)c3cc2Cl)CC1 (stereo unspecified),≤ 1
10,COc1ccc(C2(CN)CCC(Oc3cc4cc[nH]c(=O)c4cc3Cl)CC2)cc1OC (stereo unspecified),≤ 1
11,N[C@]1(C2CC2)CC[C@H](Oc2cc3cc[nH]c(=O)c3cc2Cl)CC1,≤ 1
